System: serotonin uptake
Experiment: Inhibition of serotonin uptake (in vitro): inhibition of synaptosomal reuptake of tritiated serotonin
Format: biochemical
Method: Determination of endogenous monoaminergic re-uptake inhibition values both for serotonin and norepinephrine was accomplished using test methods described by P. Skolnick, et al., Br. J. Pharmacology (1985), 86, pp. 637-644; with only minor modifications. In vitro IC50 (nM) test values were determined for representative compounds of Formula I based on their inhibition of synaptosomal reuptake of tritiated serotonin. Test data IC50 values lower than 500 nM are considered to reflect activity as an inhibitor of serotonin reuptake. Compounds with Ic50 values lower than 100 nM comprise preferred compounds.

Structure (SMILES) | IC50 [nM]
COc1cncnc1N1CCN(CCCc2c[nH]c3ccc(F)cc23)C(C)C1 (stereo not shown) [Example 23, 3-[3-[4-(5-Methoxy-4-pyrimidinyl)-2-methyl-1-piperazinyl]propyl]-5-fluoroindole] | 0.03
COc1cncnc1N1CCN(CCCc2c[nH]c3ccc(F)cc23)CC1 [Example 24, 3-[3-[4-(5-Methoxy-4-pyrimidinyl)-1-piperazinl]propyl]-5-fluoroindole] | 0.3
COc1cncnc1N1CCN(CCCc2c[nH]c3cc(F)ccc23)C(C)C1 (stereo not shown) [Example 25, 3-[3-[4-(5-Methoxy-4-pyrimidinyl)-2-methyl-1-pioerazinyl]-propyl]-6-fluoroindole] | 3.7
CCOc1cncnc1N1CCN(CCCc2c[nH]c3ccccc23)CC1 [Example 27] | 6.35
COc1cncnc1N1CCN(CCCc2c[nH]c3ccccc23)CC1 [Example 28] | 4.3
COc1cncnc1N1CCN(CCCc2c[nH]c3ccc(Cl)cc23)CC1 [Example 29] | 2.9
COc1cncnc1N1CCN(CCCc2c[nH]c3cc(F)c(F)cc23)C(C)C1 (stereo not shown) [Example 30] | 1.46
COc1cncnc1N1CCN(CCc2c[nH]c3ccc(F)cc23)CC1 [Example 31] | 0.92
COc1cncnc1N1CCN(CCCc2c[nH]c3ccc(Cl)cc23)C(C)C1 (stereo not shown) [Example 32] | 2.1
CCC1CN(c2ncncc2OC)CCN1CCCc1c[nH]c2ccccc12 (stereo not shown) [Example 33] | 2.64
COc1cncnc1N1CCN(CCc2c[nH]c3cc(F)c(F)cc23)CC1 [Example 34] | 3.1
COc1cncnc1N1CCN(CCc2c[nH]c3ccc(F)cc23)C(C)C1 (stereo not shown) [Example 35] | 3.1
COc1cncnc1N1CCN(CCCc2cn(C)c3ccccc23)C(C)C1 (stereo not shown) [Example 36] | 4.7
COc1cc(N2CCN(CCCc3c[nH]c4ccccc34)CC2)ncn1 [Example 37] | 5.85
CCOc1cncnc1N1CCN(CCCc2c[nH]c3ccccc23)C(C)C1 (stereo not shown) [Example 38] | 13.4
COc1cc(N2CCN(CCCc3c[nH]c4ccccc34)C(C)C2)ncn1 (stereo not shown) [Example 39] | 9.3

Reference: patent US5077293A, “1-indolyalkyl-4-(alkoxypyrimidinyl)piperazines” (Bristol-Myers Squibb Co., priority 1990, dated 1991)
